This note sets out measurements from patent US11351178B2, “Selective HDAC6 inhibitors” (ITALFARMACO S.P.A., priority 2017, dated 2022).

A value given as a limit tells only on which side of the number the result lay.

Series [1] deals with T1, HDAC4 (Homo sapiens, UniProt P56524).
T1 construct: purchased BPS 50004
Briefly: Enzymatic test HDAC4. Conditions: Table 3. It counts as biochemical. Here is the method: (§1) After a period of incubation at 30° C. (incubation times vary for different isoforms and are shown in table 1) 25 μL of solution containing the substrate were added. As substrate, FLUOR DE LYS® deacetylase substrate (Enzo Life Sciences, cat #BML-K1104, FdL), FLUOR DE LYS®-Green substrate (Enzo Life Sciences, cat #BML-K1572 FdL_G) and trifluoroacetyl-L-lysine (Tfal)-2× concentrated solution in 25 mM Tris-HCl, pH 8, 130 mM NaCl 0.05% Tween-20 10% glycerol) were used. Following a reaction period at 30° C.

Series [2] relates to B 697 promyelocytic cell line. Briefly: Cytotoxicity on 697 cell line (CellTiter 96). The series is classed as cell-based. Conditions: 72 hours incubation, read-out: 697 TOXICITY
The method in brief: (§2)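 Cells seeded (2×10^4/well for 697, 5×10^5/well for PBMCs); compounds added after 24 h at 1–10000 nM (697) or 1.5–10000 nM (PBMCs) and incubated 72 h. Viability read by CellTiter 96 Aqueous One tetrazolium assay of mitochondrial function.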

Series [3] concerns the target T2, recombinant human HDAC3 (Homo sapiens, UniProt O15379).
T2 construct: purchased BPS 50003
Briefly: Enzymatic screening on recombinant human HDAC3. The series is classed as biochemical. Conditions: Table 3. Here is the method:
Enzymatic activity on recombinant human HDAC6 and HDAC3 was evaluated (Table 2) for each synthesized compound.
as §1

Series [4] has as its target T3, HDAC10 (Homo sapiens, UniProt Q969S8).
T3 construct: purchased BPS 50010
T3 sequence (Q969S8 1-669): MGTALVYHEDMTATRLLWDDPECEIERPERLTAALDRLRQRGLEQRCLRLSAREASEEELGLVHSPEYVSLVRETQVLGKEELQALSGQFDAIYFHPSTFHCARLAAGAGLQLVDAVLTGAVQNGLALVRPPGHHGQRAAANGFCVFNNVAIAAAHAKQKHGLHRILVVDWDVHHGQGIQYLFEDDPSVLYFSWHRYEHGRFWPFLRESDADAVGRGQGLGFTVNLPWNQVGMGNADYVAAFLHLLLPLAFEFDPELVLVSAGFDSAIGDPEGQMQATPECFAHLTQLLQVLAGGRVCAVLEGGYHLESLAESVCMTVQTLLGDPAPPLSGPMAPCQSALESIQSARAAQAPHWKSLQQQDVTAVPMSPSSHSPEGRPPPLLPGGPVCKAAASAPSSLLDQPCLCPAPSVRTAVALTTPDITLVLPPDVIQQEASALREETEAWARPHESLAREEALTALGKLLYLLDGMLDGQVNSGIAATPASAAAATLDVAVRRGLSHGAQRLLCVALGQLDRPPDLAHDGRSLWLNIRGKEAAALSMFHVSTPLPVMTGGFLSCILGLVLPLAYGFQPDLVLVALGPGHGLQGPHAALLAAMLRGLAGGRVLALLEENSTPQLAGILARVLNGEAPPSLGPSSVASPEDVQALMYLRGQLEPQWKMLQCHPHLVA
Briefly: Enzymatic test HDAC10. Conditions: Table 3. The series is classed as biochemical.

Series [5] relates to peripheral blood mononuclear cells (PBMCs). Nature of the series: Cytotoxicity on PBMCs (CellTiter 96). The series is classed as cell-based. Conditions: PBMC, 72 h; read-out: PBMC TOXICITY (72 h). In outline: as §2
Series [6] deals with T4, HDAC9 (Homo sapiens, UniProt Q9UKV0).
T4 construct: purchased BPS 50009
Briefly: Enzymatic test HDAC9. Conditions: Table 3. The series is classed as biochemical. The procedure:
as §1

A short description of series [7]: Stability to Phase I metabolism in human S9 liver fraction. It counts as in vitro ADME. In outline:
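Compounds were incubated with rat or human liver S9 fraction at 37 °C for up to 90 min. Reactions were quenched on ice with acidified acetonitrile and analysed by HPLC-UV or LC-MS/MS. Percent remaining versus time zero and intrinsic clearance were calculated.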

Series [8] can be described thus: Stability in human plasma. The series is classed as in vitro ADME. Conditions: after 4 hours, 37° C. The method in brief:
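Compounds incubated at 37° C in rat or human plasma at 50 μM (UV/HPLC) or 1 or 2 μM (LC-MS/MS) for 0–4 h. Reaction stopped with acidified acetonitrile on ice; percent remaining versus initial amount and plasma half-life calculated.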

For series [9], the target named is T5, HDAC8 (Homo sapiens, UniProt Q9BY41).
T5 construct: purchased BPS 50008
T5 sequence (Q9BY41 1-377): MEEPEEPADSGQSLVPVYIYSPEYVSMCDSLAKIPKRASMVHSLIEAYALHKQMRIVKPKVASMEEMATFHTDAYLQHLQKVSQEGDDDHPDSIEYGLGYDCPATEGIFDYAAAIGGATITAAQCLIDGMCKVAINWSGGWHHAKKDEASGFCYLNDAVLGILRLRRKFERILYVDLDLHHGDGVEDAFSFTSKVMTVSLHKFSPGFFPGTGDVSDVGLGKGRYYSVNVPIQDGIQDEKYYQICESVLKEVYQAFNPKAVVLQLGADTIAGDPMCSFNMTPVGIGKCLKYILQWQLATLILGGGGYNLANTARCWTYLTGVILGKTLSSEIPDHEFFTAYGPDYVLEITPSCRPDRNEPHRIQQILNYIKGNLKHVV
Briefly: Enzymatic test HDAC8. The series is classed as biochemical. Conditions: Table 3.

Setting [10] is: human liver S9 fraction, after 90 min, 37° C.

T2 sequence (O15379 whole entry): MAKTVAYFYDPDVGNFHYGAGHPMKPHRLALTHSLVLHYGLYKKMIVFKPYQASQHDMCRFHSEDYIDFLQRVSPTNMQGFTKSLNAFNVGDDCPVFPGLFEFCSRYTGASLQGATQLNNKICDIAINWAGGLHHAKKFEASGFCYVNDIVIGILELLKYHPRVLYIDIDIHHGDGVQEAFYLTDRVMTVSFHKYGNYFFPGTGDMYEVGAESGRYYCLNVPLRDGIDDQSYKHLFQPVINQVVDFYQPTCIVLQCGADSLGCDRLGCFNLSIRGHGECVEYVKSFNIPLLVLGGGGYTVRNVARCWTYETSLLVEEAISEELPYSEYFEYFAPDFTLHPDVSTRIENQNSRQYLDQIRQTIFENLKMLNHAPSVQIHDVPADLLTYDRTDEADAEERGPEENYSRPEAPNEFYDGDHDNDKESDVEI
T2 sequence (Q9Y618 395-489 partner limits assumed): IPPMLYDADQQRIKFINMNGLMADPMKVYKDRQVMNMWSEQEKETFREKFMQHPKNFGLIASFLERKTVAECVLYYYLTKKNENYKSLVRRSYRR
T1 sequence (P56524 627-1084 limits assumed): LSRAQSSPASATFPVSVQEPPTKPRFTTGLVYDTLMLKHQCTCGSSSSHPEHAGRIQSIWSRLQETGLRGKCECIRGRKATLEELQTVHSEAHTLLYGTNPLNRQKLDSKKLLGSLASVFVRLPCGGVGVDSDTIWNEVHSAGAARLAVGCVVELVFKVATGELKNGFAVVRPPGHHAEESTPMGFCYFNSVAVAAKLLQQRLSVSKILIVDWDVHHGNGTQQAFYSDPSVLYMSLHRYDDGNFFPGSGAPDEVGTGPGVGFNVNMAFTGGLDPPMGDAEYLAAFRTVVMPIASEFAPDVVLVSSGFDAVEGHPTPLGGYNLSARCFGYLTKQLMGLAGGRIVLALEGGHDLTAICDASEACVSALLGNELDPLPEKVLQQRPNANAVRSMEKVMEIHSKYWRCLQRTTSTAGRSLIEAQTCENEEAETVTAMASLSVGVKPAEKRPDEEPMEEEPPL
T4 sequence (Q9UKV0 1-1066 isoform Q9UKV0-5): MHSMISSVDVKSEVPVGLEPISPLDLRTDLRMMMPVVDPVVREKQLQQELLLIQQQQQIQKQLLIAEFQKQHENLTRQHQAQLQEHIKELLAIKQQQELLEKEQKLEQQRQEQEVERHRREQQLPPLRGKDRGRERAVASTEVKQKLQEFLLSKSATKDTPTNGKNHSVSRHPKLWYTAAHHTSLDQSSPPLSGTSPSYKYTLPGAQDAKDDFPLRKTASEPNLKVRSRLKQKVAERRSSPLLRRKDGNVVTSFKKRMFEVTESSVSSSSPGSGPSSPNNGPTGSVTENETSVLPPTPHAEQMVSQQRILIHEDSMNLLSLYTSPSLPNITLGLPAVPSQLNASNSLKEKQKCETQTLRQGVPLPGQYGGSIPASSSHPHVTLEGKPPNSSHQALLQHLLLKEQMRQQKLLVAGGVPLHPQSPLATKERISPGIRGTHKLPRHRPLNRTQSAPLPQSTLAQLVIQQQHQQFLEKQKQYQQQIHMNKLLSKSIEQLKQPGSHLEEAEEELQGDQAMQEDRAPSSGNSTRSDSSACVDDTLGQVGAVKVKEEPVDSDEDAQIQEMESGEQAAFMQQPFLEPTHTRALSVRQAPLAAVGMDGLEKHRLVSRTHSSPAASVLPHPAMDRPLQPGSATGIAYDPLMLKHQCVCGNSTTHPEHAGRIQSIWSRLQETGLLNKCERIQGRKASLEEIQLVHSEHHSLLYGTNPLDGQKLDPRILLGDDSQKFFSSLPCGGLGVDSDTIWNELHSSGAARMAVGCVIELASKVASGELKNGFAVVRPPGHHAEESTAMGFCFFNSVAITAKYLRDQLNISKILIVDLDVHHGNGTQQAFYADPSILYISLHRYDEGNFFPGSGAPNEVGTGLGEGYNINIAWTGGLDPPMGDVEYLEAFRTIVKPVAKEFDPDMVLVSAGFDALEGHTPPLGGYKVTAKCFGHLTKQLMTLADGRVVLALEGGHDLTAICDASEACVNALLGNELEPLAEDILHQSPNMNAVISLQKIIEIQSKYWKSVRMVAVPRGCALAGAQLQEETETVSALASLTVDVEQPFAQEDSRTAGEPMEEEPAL

Consider `O=C(NO)c1cc(F)c(Cn2nnc(-c3scc4c3OCCO4)n2)c(F)c1` [comp. 79, 4-[[5-(2,3-dihydrothieno[3,4-b][1,4]dioxin-5-yl)tetrazol-2-yl]methyl]-3,5-difluoro-benzenecarbohydroxamic acid], for which the IC50 in [1] turned out to be 541 nM; in series [2] it was 22200 nM; in series [3], 1650 nM; in [4] it was 1910 nM; in series [5], 3000 nM; in series [6], 514 nM.

With `Cn1c(Sc2c(F)cc(C(=O)NO)cc2F)nnc1-c1cccnn1` [comp. 179, 3,5-difluoro-4-[(4-methyl-5-pyridazin-3-yl-1,2,4-triazol-3-yl)sulfanyl]benzenecarbohydroxamic acid], the “residual percentage in human S9 fraction” value in series [7] (setting [10]) stood at 79%. The IC50 in series [2] is 50300 nM; in series [5] it was over 10000 nM. The “residual percentage in human plasma” value in [8] was found to be 100%.

Regarding `O=C(NO)c1cc(F)c(Cn2nnc(-c3cccs3)n2)c(F)c1` [comp. 65, 3,5-difluoro-4-[[5-(2-thienyl)tetrazol-2-yl]methyl]benzenecarbohydroxamic acid], the IC50 in series [1] was determined as 831 nM; in series [9] it was 1080 nM; in [3], 1860 nM; in series [4] it was 1450 nM; in [6], 995 nM.

For `Cn1c(Sc2c(F)cc(C(=O)NO)cc2F)nnc1-c1cccc(CN2CCCCCC2)c1` [comp. 167, 4-[[5-[3-(azepan-1-ylmethyl)phenyl]-4-methyl-1,2,4-triazol-3-yl]sulfanyl]-3,5-difluoro-benzenecarbohydroxamic acid], in [7] (setting [10]), the “residual percentage in human S9 fraction” value came to 78%. Moreover, the IC50 in series [2] was 43000 nM; in [5], over 10000 nM. In [8], the “residual percentage in human plasma” value was 91%.

Turning to `Cn1c(Sc2c(F)cc(C(=O)NO)cc2F)nnc1-c1ccc(CN2CCCCCC2)cc1` [comp. 168, 4-[[5-[4-(azepan-1-ylmethyl)phenyl]-4-methyl-1,2,4-triazol-3-yl]sulfanyl]-3,5-difluoro-benzenecarbohydroxamic acid], the IC50 was determined as 36900 nM in series [2] and 7000 nM in [5].

For `O=C(NO)c1cc(F)c(Cc2nnc(-c3ccncc3)s2)c(F)c1` [compound 195, 3,5-difluoro-4-[[5-(4-pyridyl)-1,3,4-thiadiazol-2-yl]methyl]benzenecarbohydroxamic acid], the “residual percentage in human S9 fraction” value in series [7] (setting [10]) came to 68%. For the same compound, the figures for the IC50 in [2] and in series [5] were 3120 nM and over 10000 nM, respectively. In series [8], the “residual percentage in human plasma” value worked out at 93%.

For the compound `O=C(NO)c1ccc(Cn2nnc(-c3ccccc3F)n2)cc1` [comp. 33, 4-[[5-(2-fluorophenyl)tetrazol-2-yl]methyl]benzenecarbohydroxamic acid], the IC50 in [1] was found to be 1910 nM; in series [9], 413 nM; in [3], 138 nM; in series [4], 441 nM; in series [6] it was 948 nM.

As to `O=C(NO)c1ccc(Cn2nnc(-c3cccs3)n2)cc1` [comp. 50, 4-[[5-(2-thienyl)tetrazol-2-yl]methyl]benzenecarbohydroxamic acid], the IC50 in series [1] came to 1950 nM; in series [9], 455 nM; in series [3], 154 nM; in series [4] it was 398 nM; in series [6], 800 nM.

Consider `O=C(NO)c1cc(F)c(Cn2nnnc2-c2ncccn2)c(F)c1` [comp. 125, 3,5-difluoro-4-[(5-pyrimidin-2-yltetrazol-1-yl)methyl]benzenecarbohydroxamic acid], for which the “residual percentage in human S9 fraction” value in series [7] (human, 90 min, pH 7.4) came out at 83%. Further, the IC50 in series [2] and in series [5] was over 10000 nM each time. The “residual percentage in human plasma” value in series [8] was 77%.

Regarding `CN(C)S(=O)(=O)c1cccc(-c2nnn(Cc3ccc(C(=O)NO)cc3)n2)c1` [comp. 59, 4-[[5-[3-(dimethylsulfamoyl)phenyl]tetrazol-2-yl]methyl]benzenecarbohydroxamic acid], the IC50 in [1] is 2490 nM; in [9], 547 nM; in [3], 448 nM; in series [4], 542 nM; in series [6], 1540 nM.

Regarding `Nc1ccc(-c2nnn(Cc3c(F)cc(C(=O)NO)cc3F)n2)cc1` [comp. 171, 4-[[5-(4-aminophenyl)tetrazol-2-yl]methyl]-3,5-difluoro-benzenecarbohydroxamic acid], the “residual percentage in human S9 fraction” value in series [7] (setting [10]) is given as 74%. The IC50 was 6140 nM in series [2] and over 10000 nM in [5]. In series [8], the “residual percentage in human plasma” value is 88%.

Regarding `Cn1c(Sc2c(F)cc(C(=O)NO)cc2F)nnc1C(c1ccccc1)c1ccccc1` [comp. 98, 4-[(5-benzhydryl-4-methyl-1,2,4-triazol-3-yl)sulfanyl]-3,5-difluoro-benzenecarbohydroxamic acid], the IC50 was 1610 nM in series [1]; 186 nM in [9]; 8930 nM in series [3]; 1480 nM in [4]; 844 nM in series [6].

Take `O=C(NO)c1ccc(Cn2nnnc2-c2cccs2)cc1` [comp. 8, N-hydroxy-4-((5-(thiophen-2-yl)-1H-tetrazol-1-yl)methyl)benzamide]: the “residual percentage in human S9 fraction” value in series [7] (setting [10]) is listed as 100%. Further, the IC50 in [2] was found to be 8880 nM; in series [5], 3500 nM. Besides, the “residual percentage in human plasma” value in series [8] is given as 91%.

For the compound `O=C(NO)c1ccc(Cc2nnc(-c3ccc(F)cc3F)o2)cc1` [comp. 58, 4-((5-(2,4-difluorophenyl)-1,3,4-oxadiazol-2-yl)methyl)-N-hydroxybenzamide], the IC50 in series [1] is 3930 nM; in [9], 1000 nM; in series [3] it was 206 nM; in series [4] it was 591 nM; in series [6], 2170 nM.

In the case of `Cn1c(Sc2c(F)cc(C(=O)NO)cc2F)nnc1-c1cccc2ccccc12` [comp. 2, 3,5-difluoro-N-hydroxy-4-((4-methyl-5-(naphthalen-1-yl)-4H-1,2,4-triazol-3-yl)thio)benzamide], the IC50 in series [1] was 1460 nM; in series [2], 6080 nM; in [3] it was 8650 nM; in [4] it was 14100 nM; in series [5], over 1000 nM; in series [6], 592 nM. In series [7] (human, 90 min, pH 7.4), the “residual percentage in human S9 fraction” value is 78%. In addition, the “residual percentage in human plasma” value in series [8] was 71%.

As for `Cn1c(Sc2c(F)cc(C(=O)NO)cc2F)nnc1-c1ncccc1F` [comp. 180, 3,5-difluoro-4-[[5-(3-fluoro-2-pyridyl)-4-methyl-1,2,4-triazol-3-yl]sulfanyl]benzenecarbohydroxamic acid], in series [7] (setting [10]), the “residual percentage in human S9 fraction” value amounted to 80%. The IC50 in series [2] was 40200 nM; in series [5] it was over 10000 nM. Also, the “residual percentage in human plasma” value in series [8] amounted to 97%.
